Assay results reported in the CheMixHub viscosity set.

Assay: xn = mol fraction of the nth substance listed

CCCCCCCCCCCCCC[P+](CCCCCC)(CCCCCC)CCCCCC.N#C[N-]C#N + O
Conditions | viscosity [mPa·s]
303.11 K, 101 kPa, x2 = 0.198 | 284.5

CCCCCO + O
viscosity [mPa·s], 101 kPa
Conditions | 298.15 K | 308.15 K | 318.15 K
x2 = 0.0288 | 3.509 | 2.654 | –
x2 = 0.029 | – | – | 2.055
x2 = 0.0453 | 3.487 | 2.638 | –
x2 = 0.066 | 3.468 | 2.62 | –
x2 = 0.0685 | – | – | 2.026
x2 = 0.0859 | 3.451 | 2.606 | –
x2 = 0.0914 | – | – | 2.016
x2 = 0.1012 | – | – | 2.006
x2 = 0.113 | 3.437 | 2.591 | –
x2 = 0.1301 | 3.431 | 2.585 | 1.997
x2 = 0.1472 | 3.429 | 2.579 | –
x2 = 0.149 | – | – | 1.991
x2 = 0.1655 | – | 2.577 | –
x2 = 0.1689 | 3.424 | – | 1.985
x2 = 0.1776 | 3.426 | 2.576 | –
x2 = 0.2023 | – | – | 1.98
x2 = 0.216 | 3.428 | 2.572 | –
x2 = 0.2419 | 3.438 | 2.575 | 1.979

COCC(C)O (stereo not given) + O
viscosity [mPa·s], 101.33 kPa
Conditions | 298.15 K | 308.15 K | 318.15 K
x1 = 0.0222 | 1.29 | 1 | 0.8257
x1 = 0.0396 | 1.651 | 1.236 | 0.98
x1 = 0.1131 | 3.035 | 2.119 | 1.579
x1 = 0.1959 | 3.731 | 2.615 | 1.925
x1 = 0.301 | 3.864 | 2.73 | 2.015
x1 = 0.3583 | 3.811 | 2.663 | 1.978
x1 = 0.4651 | 3.515 | 2.438 | 1.841
x1 = 0.5264 | 3.124 | 2.3 | 1.744
x1 = 0.7332 | 2.414 | 1.823 | 1.42
x1 = 0.8372 | 2.094 | 1.61 | 1.277
x1 = 0.9035 | 1.929 | 1.49 | 1.189

Cc1nc(C)c(C)[nH]1 + O
viscosity [mPa·s], 100 kPa
Conditions | x1 = 0.0179 | x1 = 0.0393 | x1 = 0.0655 | x1 = 0.0983 | x1 = 0.141
298.15 K | 1.317 | 2.01 | 3.12 | 5.27 | 9.35
303.15 K | 1.157 | 1.754 | 2.71 | 4.41 | 7.38
313.15 K | 0.944 | 1.384 | 2.08 | 3.24 | 4.87
323.15 K | 0.774 | 1.1 | 1.598 | 2.4 | 3.44
